Experimental data taken from patent US11370769B2, “TRPC5 inhibitors and methods of using same” (BOARD OF REGENTS OF THE UNIVERSITY OF NEBRASKA, priority 2017, dated 2022).

Molecular target: T1, TRPC4 (Homo sapiens, UniProt Q9UBN4)
T1 construct: expressed in transfected cells; host or cells: HEK293
T1 sequence (Q9UBN4 1-977): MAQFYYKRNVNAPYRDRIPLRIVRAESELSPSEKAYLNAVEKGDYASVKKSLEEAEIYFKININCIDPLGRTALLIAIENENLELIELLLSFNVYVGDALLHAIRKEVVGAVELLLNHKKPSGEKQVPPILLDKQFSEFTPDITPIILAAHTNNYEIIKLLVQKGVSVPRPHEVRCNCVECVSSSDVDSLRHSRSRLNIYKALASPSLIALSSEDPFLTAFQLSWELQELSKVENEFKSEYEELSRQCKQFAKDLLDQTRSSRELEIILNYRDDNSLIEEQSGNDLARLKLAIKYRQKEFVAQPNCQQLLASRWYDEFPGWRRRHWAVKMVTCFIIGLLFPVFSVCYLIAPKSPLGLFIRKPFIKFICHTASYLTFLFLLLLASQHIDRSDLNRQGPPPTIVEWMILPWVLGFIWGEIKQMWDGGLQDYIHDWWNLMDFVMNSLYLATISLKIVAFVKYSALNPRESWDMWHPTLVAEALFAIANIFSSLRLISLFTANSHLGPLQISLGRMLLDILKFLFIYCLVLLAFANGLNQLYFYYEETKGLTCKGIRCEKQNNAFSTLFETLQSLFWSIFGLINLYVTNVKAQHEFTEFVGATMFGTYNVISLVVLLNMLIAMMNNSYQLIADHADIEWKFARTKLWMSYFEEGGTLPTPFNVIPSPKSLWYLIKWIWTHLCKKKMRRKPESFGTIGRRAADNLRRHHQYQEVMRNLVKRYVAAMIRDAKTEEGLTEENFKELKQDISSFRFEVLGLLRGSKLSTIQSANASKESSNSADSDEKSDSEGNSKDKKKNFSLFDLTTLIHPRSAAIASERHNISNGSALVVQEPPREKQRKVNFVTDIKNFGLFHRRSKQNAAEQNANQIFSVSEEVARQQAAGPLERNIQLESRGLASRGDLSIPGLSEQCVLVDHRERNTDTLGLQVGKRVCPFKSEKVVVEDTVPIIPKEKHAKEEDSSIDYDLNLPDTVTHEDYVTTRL
Test: HEK293 whole-cell patch clamp recording, TRPC4 inhibition assay
Format: cell-based
Settings: 30 μM, HEK cells expressing TRPC4, CCh 100 μM
Procedure: TRPC4, TRPC5, and TRPC6 inhibition assay: HEK293 whole-cell recordings Whole-cell patch clamp recording was performed 16 h after transfection. The bath solution contained (in mM): 140 NaCl, 5 KCl, 10 HEPES, 2 MgCl2, 2 CaCl2, 10 glucose with pH7.4 adjusted with NaOH. The intracellular solution contained (in mM): 140 KCl, 5 EGTA, 10 HEPES, 2 MgCl2 with pH7.4 adjusted with KOH. The patch pipettes were made using a two-step-protocol (P-97, Sutter Instrument). The pipette resistance was maintained between 4 to 8 MΩ. Once the whole-cell configuration was achieved, cells were clamped at a holding potential of −60 mV, and given a 50 ms ramp stimulation from −100 mV to +100 mV in every 5 s. All currents were filtered at 2 KHz (Axopatch 200B amplifier, Axon Instruments, Union City, Calif.) and digitized at 10 KHz for whole-cell recordings using Axon pCLAMP 10.4. Data were then analyzed using Clampfit 10.4 (Molecular Devices).
HEK293 cell culture and transfection: Transfection of HEK293 cells was carried out using Plus reagent (Invitrogen) and Lipofectamine (Invitrogen) according to standard protocols. For heterologous expression of TRP channels in HEK293 cells, 1 μg of TRPC5-GFP, TRPC6-GFP or TRPC4-GFP plasmids were used to transfect HEK293 cells in a 3.5 cm petri dish where cells were allowed to grow to 80% confluence. Electrophysiology was carried out after 16 h incubation.

**Q.** c1ccc(Cn2c(NCc3ccco3)nc3ccccc32)cc1 [AC1903] was tested. Which “block of carbachol (CCh)-induced TRPC4 current” value did it give?
**A.** The value was “failed to block”.
